Experimental data published in patent publication US11352322B2, “Cyclopropyl-amide compounds as dual LSD1/HDAC inhibitors” (Jubilant Epicore LLC, priority 2016, dated 2022).
Structures can show the parent of a compound that is named as a salt.

What was measured:
[1] = target: HDAC6 human recombinant enzyme (Homo sapiens (Human), UniProt Q9UBN7); experiment: Histone Deacetylase Assay (BPS Biosciences), HDAC6; type: biochemical
From the text: Histone Deacetylase Assay (BPS Biosciences)
Histone deacetylase assay was done as per manufacturer's instructions.

[2] = test system: MM1S; experiment: Anticancer activity: Alamar Blue assay, MM1S; type: cell-based; conditions: Homo sapiens, MM1.S, read-out: MM1S EC50
Procedure: Cells were seeded at 5000 cells/per well in 96-well tissue culture plate and incubated at 37° C./5% CO2. After 16-24 hours, fresh media was added to the wells. Compounds were then (1% DMSO conc.) added to the cells at 10 concentrations ranging from 10-0.0005 uM prepared in 3-fold serial dilutions. Cells were incubated for 68-72 h at 37° C./5% CO2. Alamar Blue™ reagent was added and incubated for 1-3 hours at 37° C./5% CO2. Plates were read on fluorescence reader at 540 nm excitation, 590 nm emission wave lengths.

[3] = Metabolic stability in liver microsomes, HLM; conditions: 1 μM, NADPH
Procedure: (§1) The microsomal suspension was prepared by adding liver microsomes to 100 mM potassium phosphate buffer (pH7.4) to give a final protein concentration of 0.5 mg/mL. The stock solution of NCE (10 mM in DMSO) was added to the microsomes to provide a final concentration of 1 μM. […] Samples were vortexed and centrifuged at 5,000 rpm for 10 min to remove proteins. Supernatant were analyzed on LC-MS/MS.

[4] = Metabolic stability in liver microsomes, MLM; conditions: 1 μM, NADPH
Procedure: as §1

HDAC6 human recombinant enzyme, sequence (Q9UBN7 whole entry): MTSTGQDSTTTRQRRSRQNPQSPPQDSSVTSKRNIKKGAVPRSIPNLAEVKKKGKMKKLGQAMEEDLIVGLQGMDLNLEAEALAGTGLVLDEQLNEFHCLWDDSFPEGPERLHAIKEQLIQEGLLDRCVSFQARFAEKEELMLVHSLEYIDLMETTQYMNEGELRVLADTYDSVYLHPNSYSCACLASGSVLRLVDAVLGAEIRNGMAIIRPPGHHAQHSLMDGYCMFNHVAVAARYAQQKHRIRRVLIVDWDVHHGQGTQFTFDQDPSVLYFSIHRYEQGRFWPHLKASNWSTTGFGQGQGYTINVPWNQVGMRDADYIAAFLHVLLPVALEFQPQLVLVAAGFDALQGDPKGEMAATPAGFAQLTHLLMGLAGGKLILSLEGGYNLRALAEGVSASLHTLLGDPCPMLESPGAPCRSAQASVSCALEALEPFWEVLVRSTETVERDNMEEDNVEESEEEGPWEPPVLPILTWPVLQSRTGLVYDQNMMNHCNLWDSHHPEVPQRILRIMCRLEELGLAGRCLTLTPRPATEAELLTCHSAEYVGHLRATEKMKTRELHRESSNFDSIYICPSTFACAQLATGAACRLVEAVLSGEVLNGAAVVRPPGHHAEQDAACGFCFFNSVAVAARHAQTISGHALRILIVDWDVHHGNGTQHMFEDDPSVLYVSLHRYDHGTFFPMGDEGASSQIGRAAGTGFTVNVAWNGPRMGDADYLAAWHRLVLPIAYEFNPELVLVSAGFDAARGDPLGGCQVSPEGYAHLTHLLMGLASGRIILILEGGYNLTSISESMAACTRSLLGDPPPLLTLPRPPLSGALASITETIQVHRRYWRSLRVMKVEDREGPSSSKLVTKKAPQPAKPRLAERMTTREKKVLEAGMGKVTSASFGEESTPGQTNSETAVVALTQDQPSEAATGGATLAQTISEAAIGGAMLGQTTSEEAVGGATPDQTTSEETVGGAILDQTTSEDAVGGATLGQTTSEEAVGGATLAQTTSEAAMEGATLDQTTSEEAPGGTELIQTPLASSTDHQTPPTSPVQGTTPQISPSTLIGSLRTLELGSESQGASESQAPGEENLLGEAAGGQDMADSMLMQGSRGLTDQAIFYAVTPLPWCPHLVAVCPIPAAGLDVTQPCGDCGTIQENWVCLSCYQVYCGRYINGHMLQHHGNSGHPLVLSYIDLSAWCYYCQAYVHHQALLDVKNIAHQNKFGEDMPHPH

Row | SMILES | IC50 [1] | EC50 [2] | Metabolic stability HLM % remaining in 30 min [3] | Metabolic stability MLM % remaining in 30 min [4]
1 | Nc1ccccc1NC(=O)c1ccc(CNC(=O)N2CCC(CNC3CC3c3ccc(F)cc3)CC2)cc1 (stereo not shown) [Example 158, N-(4-((2-aminophenyl)carbamoyl)benzyl)-4-(((2-(4-fluorophenyl)cyclopropyl)amino)methyl)piperidine-1-carboxamide TFA Salt] | > 10000 nM | 58 nM | 50% | < 5%
2 | O=C(NO)c1ccc(CCCN2CCC(CNC3CC3c3cnn(-c4ccccc4)c3)CC2)cc1 (stereo not shown) [Example 68, N-hydroxy-4-(3-(4-(((2-(1-phenyl-1H-pyrazol-4-yl)cyclopropyl)amino)methyl)piperidin-1-yl)propyl)benzamide TFA Salt] | 104 nM | – | – | –
3 | O=C(NO)c1ccc2c(c1)CN(C(=O)CN[C@@H]1C[C@H]1c1ccc(F)cc1)CC2 [Example 104B, 2-(2-(((1R,2S)-2-(4-fluorophenyl)cyclopropyl)amino)acetyl)-N-hydroxy-1,2,3,4-tetrahydroisoquinoline-7-carboxamide TFA Salt] | 45 nM | 374 nM | 74% | 70%
4 | O=C(NO)c1ccc2c(c1)CN(C(=O)CCCNC1CC1c1ccc(F)cc1)CC2 (stereo not shown) [Example 107, 2-(4-((2-(4-fluorophenyl)cyclopropyl)amino)butanoyl)-N-hydroxy-1,2,3,4-tetrahydroisoquinoline-7-carboxamide TFA Salt] | 85 nM | 78 nM | 83% | 67%
5 | O=C(NO)c1ccc(/C=C/C(=O)N2CCC(CNC3CC3c3ccccc3)CC2)cc1 (stereo not shown) [Example 114, (E)-N-hydroxy-4-(3-oxo-3-(4-(((2-phenylcyclopropyl)amino)methyl)piperidin-1-yl)prop-1-en-1-yl)benzamide TFA Salt] | 68 nM | 44 nM | 83% | 56%
6 | Nc1ccccc1NC(=O)c1ccc(CCCn2cnc(CNC3CC3c3ccc(F)c(F)c3)c2)cc1 (stereo not shown) [Example 135, N-(2-aminophenyl)-4-(3-(4-(((2-(3,4-difluorophenyl)cyclopropyl)amino)methyl)-1H-imidazol-1-yl)propyl)benzamide TFA Salt] | > 10000 nM | 247 nM | 2% | 8%
7 | O=C(NO)c1ccc(CCC(=O)N2CCN(C(=O)CNC3CC3c3ccccc3)CC2)cc1 (stereo not shown) [Example 92, N-hydroxy-4-(3-oxo-3-(4-(2-((2-phenylcyclopropyl)amino)acetyl)piperazin-1-yl)propyl)benzamide TFA Salt] | – | 1400 nM | 95% | 91%
8 | O=C(NO)c1ccc(CCCn2cnc(CNC3CC3c3ccc(F)c(F)c3)c2)cc1 (stereo not shown) [Example 73, 4-(3-(4-(((2-(3,4-difluorophenyl)cyclopropyl)amino)methyl)-1H-imidazol-1-yl)propyl)-N-hydroxybenzamide TFA Salt] | – | 540 nM | 52% | 53%
9 | O=C(NO)c1ccc(CN2CCN(C(=O)CNC3CC3c3ccccc3)CC2)cc1 (stereo not shown) [Example 91, N-hydroxy-4-((4-(2-((2-phenylcyclopropyl)amino)acetyl)piperazin-1-yl)methyl)benzamide TFA Salt] | – | 468 nM | 85% | 79%
10 | Nc1ccccc1NC(=O)c1cnc(CCCN2CCC(CNC3CC3c3ccccc3)CC2)s1 (stereo not shown) [Example 154, N-(2-aminophenyl)-2-(3-(4-(((2-phenylcyclopropyl)amino)methyl)piperidin-1-yl)propyl)thiazole-5-carboxamide TFA Salt] | > 10000 nM | – | – | –
11 | Nc1ccccc1NC(=O)c1ccc(CCCN2CCC(CNC3CC3c3ccccc3)CC2)cc1 (stereo not shown) [Example 121, N-(2-aminophenyl)-4-(3-(4-(((2-phenylcyclopropyl)amino)methyl)piperidin-1-yl)propyl)benzamide TFA Salt] | – | 3 nM | 36% | 42%
12 | COc1ccc(C2CC2NCC2CCN(c3ncc(C(=O)NO)cn3)CC2)cc1 (stereo not shown) [Example 18, N-hydroxy-2-(4-(((2-(4-methoxyphenyl)cyclopropyl)amino)methyl)piperidin-1-yl)pyrimidine-5-carboxamide TFA Salt] | – | 3 nM | 41% | 28%
13 | O=C(NO)c1ccc2c(c1)CN(C(=O)CCCNC1CC1c1ccc(F)cc1)C2 (stereo not shown) [Example 108, 2-(4-((2-(4-fluorophenyl)cyclopropyl)amino)butanoyl)-N-hydroxyisoindoline-5-carboxamide TFA Salt] | – | 584 nM | > 95% | 85%
14 | O=C(CCCCCCNC(=O)c1ccc(CNC2CC2c2ccc(F)cc2)cc1)NO (stereo not shown) [Example 32, 4-(((2-(4-fluorophenyl)cyclopropyl)amino)methyl)-N-(7-(hydroxyamino)-7-oxoheptyl)benzamide TFA Salt] | – | 17 nM | 41% | 22%
15 | O=C(NO)c1cnc(N2CCn3cc(CNC4CC4c4ccccc4)nc3C2)nc1 (stereo not shown) [Example 23, N-hydroxy-2-(2-(((2-phenylcyclopropyl)amino)methyl)-5,6-dihydroimidazo[1,2-a]pyrazin-7(8H)-yl)pyrimidine-5-carboxamide TFA Salt] | – | 11 nM | 95% | 85%
16 | Nc1ccccc1NC(=O)c1ccc(CCN2CCC(CNC3CC3c3ccccc3)CC2)cc1 (stereo not shown) [Example 139, N-(2-aminophenyl)-4-(2-(4-(((2-phenylcyclopropyl)amino)methyl)piperidin-1-yl)ethyl)benzamide TFA Salt] | > 10000 nM | – | – | –
17 | O=C(NO)c1ccc(CCS(=O)(=O)N2CCC(CNC3CC3c3ccccc3)CC2)cc1 (stereo not shown) [Example 88, N-hydroxy-4-(2-((4-(((2-phenylcyclopropyl)amino)methyl)piperidin-1-yl)sulfonyl)ethyl)benzamide TFA Salt] | 77 nM | – | – | –
18 | O=C(NO)c1cnc(N2CCC(NC3CC3c3ccccc3)CC2)nc1 (stereo not shown) [Example 9, 2-[4-(2-Phenyl-cyclopropylamino)-piperidin-1-yl]-pyrimidine-5-carboxylic Acid Hydroxyamide TFA Salt] | – | 4 nM | 65% | 50%
19 | Nc1ccccc1NC(=O)c1ccc(CCCN2CCC(CNC3CC3c3ccc(F)cc3)CC2)cc1 (stereo not shown) [Example 122, N-(2-aminophenyl)-4-(3-(4-(((2-(4-fluorophenyl)cyclopropyl)amino)methyl)piperidin-1-yl)propyl)benzamide TFA Salt] | – | 15 nM | 77% | 72%
20 | Cc1noc(C)c1-c1ccc(C2CC2NCC2CCN(c3ncc(C(=O)NO)cn3)CC2)cc1 (stereo not shown) [Example 16, 2-(4-(((2-(4-(3,5-dimethylisoxazol-4-yl)phenyl)cyclopropyl)amino)methyl)piperidin-1-yl)-N-hydroxypyrimidine-5-carboxamide TFA Salt] | – | 17 nM | 47% | 25%
21 | O=C(NO)c1ccc(OCCCN2CCC(CNC3CC3c3ccccc3)CC2)cc1 (stereo not shown) [Example 100, N-hydroxy-4-(3-(4-(((2-phenylcyclopropyl)amino)methyl)piperidin-1-yl)propoxy)benzamide TFA Salt] | – | 17 nM | 63% | 57%
22 | O=C(NO)c1ccc(OCCCNC2CC2c2ccccc2)cc1 (stereo not shown) [Example 101, N-hydroxy-4-(3-((2-phenylcyclopropyl)amino)propoxy)benzamide TFA Salt] | – | 29 nM | 59% | 29%
23 | Nc1ccccc1NC(=O)c1ccc(CCCN2CCC(CNC3CC3c3cnn(-c4ccccc4)c3)CC2)cc1 (stereo not shown) [Example 129, N-(2-aminophenyl)-4-(3-(4-(((2-(1-phenyl-1H-pyrazol-4-yl)cyclopropyl)amino)methyl)piperidin-1-yl)propyl)benzamide TFA Salt] | > 10000 nM | – | – | –
24 | O=C(NO)c1cnc(N2CCC(CNC3CC3c3ccc(-c4cncnc4)cc3)CC2)nc1 (stereo not shown) [Example 17, N-hydroxy-2-(4-(((2-(4-(pyrimidin-5-yl)phenyl)cyclopropyl)amino)methyl)piperidin-1-yl)pyrimidine-5-carboxamide TFA Salt] | – | 17 nM | 69% | 57%
25 | O=C(NO)c1ccc(CCCN2CCC(CNC3CC3c3cccc(F)c3)CC2)cc1 (stereo not shown) [Example 49, 4-(3-(4-(((2-(3-fluorophenyl)cyclopropyl)amino)methyl)piperidin-1-yl)propyl)-N-hydroxybenzamide TFA Salt] | – | 62 nM | 48% | 34%
26 | Cc1noc(C)c1-c1ccc(C2CC2NCc2ccc(/C=C/C(=O)NO)cc2)cc1 (stereo not shown) [Example 6, (E)-3-(4-(((2-(4-(3,5-dimethylisoxazol-4-yl)phenyl)cyclopropyl)amino)methyl)phenyl)-N-hydroxyacrylamide TFA Salt] | – | 34 nM | 44% | < 5%
27 | COc1ccc(C2CC2NC2CCN(c3ncc(C(=O)NO)cn3)CC2)cc1 (stereo not shown) [Example 19, N-hydroxy-2-(4-((2-(4-methoxyphenyl)cyclopropyl)amino)piperidin-1-yl)pyrimidine-5-carboxamide TFA Salt] | – | 7 nM | 83% | 71%
